Laboratory results as given in patent US20230192700A1, “PYRAZOLOPYRAZINES ACTING ON CANCERS VIA INHIBITION OF CDK12” (Bayer Aktiengesellschaft, priority 2020, published 2023).

Legend:
CDK12 = biological target: T1, CDK12 (Homo sapiens, UniProt Q9NYV4); assay: CDK12 nuclear protein level: immunofluorescence/high content analysis in CAL-120 cells; assay type: cell-based; conditions: for DC50: CAL-120 cells, 24 h, nuclear CDK12 staining intensity, median, read-out: CDK12 degradation IF DC50 - [mol/l] (median); for (IC50 CDK12 high ATP) to (Degradation DC50 CDK12) ratio: ratio of IC50 CDK12 hATP (2 mM ATP) to DC50 CDK12 (IF, CAL-120)
T1 construct: endogenous in cells; host or cells: CAL-120 human breast cancer cells (DSMZ ACC 459)
T1 sequence (Q9NYV4 whole entry): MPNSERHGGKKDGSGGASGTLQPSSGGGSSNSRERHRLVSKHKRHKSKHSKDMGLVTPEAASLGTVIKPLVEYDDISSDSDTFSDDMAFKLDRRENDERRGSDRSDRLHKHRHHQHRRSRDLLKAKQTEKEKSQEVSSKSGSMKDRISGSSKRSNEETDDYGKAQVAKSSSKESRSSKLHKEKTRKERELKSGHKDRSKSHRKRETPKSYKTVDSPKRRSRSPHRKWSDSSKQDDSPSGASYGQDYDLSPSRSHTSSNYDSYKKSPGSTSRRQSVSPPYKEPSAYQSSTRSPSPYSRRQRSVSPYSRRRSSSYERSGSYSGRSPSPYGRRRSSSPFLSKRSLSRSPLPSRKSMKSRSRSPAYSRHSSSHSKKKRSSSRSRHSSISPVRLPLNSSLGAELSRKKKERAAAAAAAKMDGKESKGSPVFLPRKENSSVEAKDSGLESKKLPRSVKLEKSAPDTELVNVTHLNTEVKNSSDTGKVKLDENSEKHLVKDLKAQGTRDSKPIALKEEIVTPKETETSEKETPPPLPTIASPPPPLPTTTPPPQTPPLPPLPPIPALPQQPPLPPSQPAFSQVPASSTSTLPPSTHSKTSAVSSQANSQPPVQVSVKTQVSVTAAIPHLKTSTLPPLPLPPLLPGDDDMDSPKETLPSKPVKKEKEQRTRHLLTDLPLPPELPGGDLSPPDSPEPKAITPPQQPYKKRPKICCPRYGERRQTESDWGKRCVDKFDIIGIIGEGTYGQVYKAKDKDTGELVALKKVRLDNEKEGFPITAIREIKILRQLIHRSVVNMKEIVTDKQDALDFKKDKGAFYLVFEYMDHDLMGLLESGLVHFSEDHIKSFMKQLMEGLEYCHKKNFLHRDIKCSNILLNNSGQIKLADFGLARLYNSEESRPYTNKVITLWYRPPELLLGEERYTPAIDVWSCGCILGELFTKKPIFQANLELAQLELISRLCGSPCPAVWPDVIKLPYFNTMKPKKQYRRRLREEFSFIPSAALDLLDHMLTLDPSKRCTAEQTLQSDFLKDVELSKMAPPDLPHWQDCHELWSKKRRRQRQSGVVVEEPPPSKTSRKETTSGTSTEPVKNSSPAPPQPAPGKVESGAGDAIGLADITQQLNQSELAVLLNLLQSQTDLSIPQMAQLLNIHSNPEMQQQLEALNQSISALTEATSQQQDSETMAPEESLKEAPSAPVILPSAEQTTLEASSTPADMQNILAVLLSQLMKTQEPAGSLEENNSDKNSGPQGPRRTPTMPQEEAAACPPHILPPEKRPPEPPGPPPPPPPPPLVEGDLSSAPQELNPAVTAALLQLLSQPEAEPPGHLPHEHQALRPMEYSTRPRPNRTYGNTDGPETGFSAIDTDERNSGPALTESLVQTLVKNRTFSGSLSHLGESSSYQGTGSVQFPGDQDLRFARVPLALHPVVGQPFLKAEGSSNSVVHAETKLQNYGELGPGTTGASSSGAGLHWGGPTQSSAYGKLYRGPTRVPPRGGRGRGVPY
T1 sequence (O75909 whole entry partner): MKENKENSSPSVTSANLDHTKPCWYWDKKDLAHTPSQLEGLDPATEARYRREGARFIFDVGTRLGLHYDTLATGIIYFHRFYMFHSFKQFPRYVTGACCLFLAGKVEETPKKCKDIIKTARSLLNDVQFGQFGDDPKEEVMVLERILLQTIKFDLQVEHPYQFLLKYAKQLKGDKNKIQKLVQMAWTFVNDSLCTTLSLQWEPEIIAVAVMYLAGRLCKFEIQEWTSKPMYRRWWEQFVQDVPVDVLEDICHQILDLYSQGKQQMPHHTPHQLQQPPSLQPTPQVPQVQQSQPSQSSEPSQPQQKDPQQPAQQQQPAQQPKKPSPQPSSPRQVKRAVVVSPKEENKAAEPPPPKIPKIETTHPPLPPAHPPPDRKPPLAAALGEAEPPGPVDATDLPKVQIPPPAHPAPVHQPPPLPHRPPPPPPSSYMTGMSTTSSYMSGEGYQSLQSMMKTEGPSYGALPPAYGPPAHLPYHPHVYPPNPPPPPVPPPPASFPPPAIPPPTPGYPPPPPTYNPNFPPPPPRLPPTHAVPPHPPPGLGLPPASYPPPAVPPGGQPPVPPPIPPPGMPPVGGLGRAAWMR
How it was run: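 Cells were exposed to compounds in dose-response for 24 h at 37 °C, then PFA-fixed, immunostained for CDK12 and counterstained with Hoechst before confocal imaging. Nuclear CDK12 intensity was normalized to DMSO and control. DC50 is the concentration giving 50% reduction of nuclear staining.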

CDK9/CyclinT1 = biological target: T2, CDK9/CyclinT1 (Homo sapiens, UniProt P50750); assay: CDK9/CycT1 high ATP kinase assay (TR-FRET); assay type: biochemical; conditions: 2 mM ATP (high ATP); median; read-out: CDK9/CyclinT1, 2 mM ATP (high ATP) IC50 - [mol/l] (median)
T2 construct: Recombinant full-length His-tagged human CDK9 and CycT1; His-tag; purchased Life Technologies PV4131; host or cells: insect cells
T2 sequence (P50750 whole entry): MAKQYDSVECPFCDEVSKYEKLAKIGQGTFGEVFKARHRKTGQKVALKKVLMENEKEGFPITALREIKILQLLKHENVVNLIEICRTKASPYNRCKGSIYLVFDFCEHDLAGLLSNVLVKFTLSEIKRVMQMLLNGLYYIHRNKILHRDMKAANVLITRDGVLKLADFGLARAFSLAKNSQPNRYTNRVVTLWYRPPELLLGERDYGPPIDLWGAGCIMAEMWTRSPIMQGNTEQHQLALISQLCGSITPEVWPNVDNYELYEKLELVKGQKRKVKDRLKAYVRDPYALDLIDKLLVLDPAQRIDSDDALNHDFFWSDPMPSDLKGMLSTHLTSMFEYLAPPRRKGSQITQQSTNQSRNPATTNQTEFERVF
T2 sequence (O60563 whole entry partner): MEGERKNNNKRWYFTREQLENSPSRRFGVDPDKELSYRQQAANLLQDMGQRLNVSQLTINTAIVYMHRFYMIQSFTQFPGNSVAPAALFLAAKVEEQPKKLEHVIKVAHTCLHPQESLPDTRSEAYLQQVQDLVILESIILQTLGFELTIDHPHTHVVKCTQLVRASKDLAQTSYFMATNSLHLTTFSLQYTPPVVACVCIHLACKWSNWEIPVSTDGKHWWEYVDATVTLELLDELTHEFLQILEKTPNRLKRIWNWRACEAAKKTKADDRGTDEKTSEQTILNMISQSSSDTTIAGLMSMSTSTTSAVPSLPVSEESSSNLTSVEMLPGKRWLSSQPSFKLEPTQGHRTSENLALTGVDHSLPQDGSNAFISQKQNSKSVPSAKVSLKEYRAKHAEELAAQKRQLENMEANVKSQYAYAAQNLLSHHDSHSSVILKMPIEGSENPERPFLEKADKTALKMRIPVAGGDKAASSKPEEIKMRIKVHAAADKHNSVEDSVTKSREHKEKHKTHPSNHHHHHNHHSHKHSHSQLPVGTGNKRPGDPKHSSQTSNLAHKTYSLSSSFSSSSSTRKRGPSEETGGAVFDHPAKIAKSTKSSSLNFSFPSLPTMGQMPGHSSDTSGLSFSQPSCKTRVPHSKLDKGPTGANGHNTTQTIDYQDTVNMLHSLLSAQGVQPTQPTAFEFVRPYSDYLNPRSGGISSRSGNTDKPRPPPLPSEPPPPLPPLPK
Method: 2.5 CDK9/CycT1 High ATP Kinase Assay
CDK9/CycT1 -inhibitory activity of compounds of the present invention at a high ATP concentration after preincubation of enzyme and test compounds was quantified employing the CDK9/CycT1 TR-FRET assay as described in the following paragraphs.
Recombinant full-length His-tagged human CDK9 and CycT1, expressed in insect cells and purified by Ni-NTA affinity chromatography, were purchased from Life Technologies (Cat. No PV4131). As substrate for the kinase reaction biotinylated peptide biotin-Ttds-YISPLKSPYKISEG (C-terminus in amide form) was used which can be purchased e.g. form the company JERINI peptide technologies (Berlin, Germany).
For the assay 50 nanoL of a 100 fold concentrated solution of the test compound in DMSO was pipetted into either a black low volume 384 well microtiter plate or a black 1536 well microtiter plate (both Greiner Bio-One, Frickenhausen, Germany), 2 microL of a solution of CDK9/CycT1 in aqueous assay buffer [50 millimol/L Tris/HCl pH 8.0, 10 millimol/L MgCl2, 1.0 millimol/L dithiothreitol, 0.1 millimol/L sodium ortho-vanadate, 0.01% (v/v) Nonidet-P40 (Sigma)] were added and the mixture was incubated for 15 min at 22° C. to allow pre-binding of the test compounds to the enzyme before the start of the kinase reaction. Then the kinase reaction was started by the addition of 3 microL of a solution of adenosine-tri-phosphate (ATP, 3.3 millimol/L=>final conc. in the 5 microL assay volume is 2 millimol/L) and substrate (1.25 micromol/L =>final conc. in the 5 microL assay volume is 0.75 micromol/L) in assay buffer and the resulting mixture was incubated for a reaction time of 25 min at 22° C. The concentration of CDK9/CycT1 was adjusted depending of the activity of the enzyme lot and was chosen appropriate to have the assay in the linear range, typical concentrations were in the range of 0.5 microg/mL. The reaction was stopped by the addition of 3 microL of a solution of TR-FRET detection reagents (0.33 micromol/L streptavidine-XL665 [Cisbio Bioassays, Codolet, France] and 1.67 nanomol/L anti-RB(pSer807/pSer811)-antibody from BD Pharmingen [#558389] and 2 nanomol/L LANCE EU-W1024 labeled anti-mouse IgG antibody [Perkin-Elmer, product no. AD0077]) in an aqueous EDTA-solution (167 millimol/L EDTA, 0.2% (w/v) bovine serum albumin in 100 millimol/L HEPES pH 7.5).
The resulting mixture was incubated 1 h at 22° C. to allow the formation of complex between the phosphorylated biotinylated peptide and the detection reagents. Subsequently the amount of phosphorylated substrate was evaluated by measurement of the resonance energy transfer from the Eu-chelate to the streptavidine-XL. Therefore, the fluorescence emissions at 620 nm and 665 nm after excitation at 350 nm was measured in a TR-FRET reader, e.g. a Pherastar (BMG Labtechnologies, Offenburg, Germany) or a Viewlux (Perkin-Elmer). The ratio of the emissions at 665 nm and at […] was taken as the measure for the amount of phosphorylated substrate. The data were normalised (enzyme reaction without inhibitor=0% inhibition, all other assay components but no enzyme=100% inhibition).

SMILES	DC50 (CDK12) [nM]	(IC50 CDK12 high ATP) to (Degradation DC50 CDK12) ratio (CDK12)	IC50 (CDK9/CyclinT1) [nM]
Cc1ccc2[nH]c(CNc3nn(C4CCN(C)CC4)c4nc(C5CC5)cnc34)nc2c1 [Example 6, 6-cyclopropyl-N-[(5-methyl-1H-benzimidazol-2-yl)methyl]-1-(1-methylpiperidin-4-yl)-1H-pyrazolo[3,4-b]pyrazin-3-amine]	13.1	>1526	≥ 12700
COc1cccc2[nH]c(CNc3nn(C4CCOCC4)c4nc(C5CC5)cnc34)nc12 [Example 24, 6-cyclopropyl-N-[(4-methoxy-1H-benzimidazol-2-yl)methyl]-1-(oxan-4-yl)-1H-pyrazolo[3,4-b]pyrazin-3-amine]	12	1614	> 20000
CN1CCC(n2nc(NCc3nc4ccccc4[nH]3)c3ncc(C4CC4)nc32)C1 (racemic) [Example 35, (±)-N-[(1H-benzimidazol-2-yl)methyl]-6-cyclopropyl-1-(1-methylpyrrolidin-3-yl)-1H-pyrazolo[3,4-b]pyrazin-3-amine]	19.1	>1046	> 20000
CC1CC(n2nc(NCc3nc4ccccc4[nH]3)c3ncc(C4CC4)nc32)CCO1 (racemic) [Example 44, (±)-cis/trans-N-[(1H-benzimidazol-2-yl)methyl]-6-cyclopropyl-1-(2-methyloxan-4-yl)-1H-pyrazolo[3,4-b]pyrazin-3-amine]	34.9		> 20000
CN1CCC(n2nc(NCc3nc4cc(Cl)ccc4[nH]3)c3ncc(C4CC4)nc32)CC1 [Example 22, N-[(5-chloro-1H-benzimidazol-2-yl)methyl]-6-cyclopropyl-1-(1-methylpiperidin-4-yl)-1H-pyrazolo[3,4-b]pyrazin-3-amine]	11.8	>1695	> 20000
O[C@H]1C[C@H](Cn2nc(NCc3nc4ccccc4[nH]3)c3ncc(C4CC4)nc32)C1 [Example 70, trans-3-[(3-{[(1H-benzimidazol-2-yl)methyl]amino}-6-cyclopropyl-1H-pyrazolo[3,4-b]pyrazin-1-yl)methyl]cyclobutan-1-ol]	10.8		> 20000
c1ccc2[nH]c(CNc3nn(CC4CCC4)c4nc(C5CC5)cnc34)nc2c1 [Example 75, N-[(1H-benzimidazol-2-yl)methyl]-1-(cyclobutylmethyl)-6-cyclopropyl-1H-pyrazolo[3,4-b]pyrazin-3-amine]	135	>148	> 20000
CN1CCCC(n2nc(NCc3nc4ccccc4[nH]3)c3ncc(C4CC4)nc32)CC1 (single isomer, unassigned) [Example 37, (+) or (−)-N-[(1H-benzimidazol-2-yl)methyl]-6-cyclopropyl-1-[(4R*)-1-methylazepan-4-yl]-1H-pyrazolo[3,4-b]pyrazin-3-amine]	12.6	>1589	> 20000
OCCCn1nc(NCc2nc3ccccc3[nH]2)c2ncc(C3CC3)nc21 [Example 60, 3-(3-{[(1H-benzimidazol-2-yl)methyl]amino}-6-cyclopropyl-1H-pyrazolo[3,4-b]pyrazin-1-yl)propan-1-ol]	41.2	>102	> 20000
CC(CCN(C)C)n1nc(NCc2nc3ccccc3[nH]2)c2ncc(C3CC3)nc21 (single isomer, unassigned) [Example 63, (+) or (−)-N-[(1H-benzimidazol-2-yl)methyl]-6-cyclopropyl-1-[4-(dimethylamino)butan-2-yl]-1H-pyrazolo[3,4-b]pyrazin-3-amine]	912	>22	> 20000
CN1CCC(n2nc(NCc3nc4c(Cl)c(F)ccc4[nH]3)c3ncc(C4CC4)nc32)CC1 [Example 31, N-[(4-chloro-5-fluoro-1H-benzimidazol-2-yl)methyl]-6-cyclopropyl-1-(1-methylpiperidin-4-yl)-1H-pyrazolo[3,4-b]pyrazin-3-amine]	14.4	>1388	> 20000
COCCn1nc(NCc2nc3ccccc3[nH]2)c2ncc(C3CC3)nc21 [Example 65, N-[(1H-benzimidazol-2-yl)methyl]-6-cyclopropyl-1-(2-methoxyethyl)-1H-pyrazolo[3,4-b]pyrazin-3-amine]	20.5		> 20000
OC1(Cn2nc(NCc3nc4ccccc4[nH]3)c3ncc(C4CC4)nc32)CCCC1 [Example 73, 1-[(3-{[(1H-benzimidazol-2-yl)methyl]amino}-6-cyclopropyl-1H-pyrazolo[3,4-b]pyrazin-1-yl)methyl]cyclopentan-1-ol]	112	>90	> 20000
Cc1c(F)ccc2[nH]c(CNc3nn(C4CCN(C)CC4)c4nc(C5CC5)cnc34)nc12 [Example 26, 6-cyclopropyl-N-[(5-fluoro-4-methyl-1H-benzimidazol-2-yl)methyl]-1-(1-methylpiperidin-4-yl)-1H-pyrazolo[3,4-b]pyrazin-3-amine]	16	>509	> 20000
COC(C)(C)CCn1nc(NCc2nc3ccccc3[nH]2)c2ncc(C3CC3)nc21 [Example 67, N-[(1H-benzimidazol-2-yl)methyl]-6-cyclopropyl-1-(3-methoxy-3-methylbutyl)-1H-pyrazolo[3,4-b]pyrazin-3-amine]	21	>937	> 20000
CN1CCCC(n2nc(NCc3nc4ccccc4[nH]3)c3ncc(C4CC4)nc32)CC1 (single isomer, unassigned) [Example 38, (−) or (+)-N-[(1H-benzimidazol-2-yl)methyl]-6-cyclopropyl-1-[(4R*)-1-methylazepan-4-yl]-1H-pyrazolo[3,4-b]pyrazin-3-amine]	13.2	>1516	> 20000
CC1(C)CC(n2nc(NCc3nc4ccccc4[nH]3)c3ncc(C4CC4)nc32)CC(C)(C)O1 [Example 52, N-[(1H-benzimidazol-2-yl)methyl]-6-cyclopropyl-1-(2,2,6,6-tetramethyloxan-4-yl)-1H-pyrazolo[3,4-b]pyrazin-3-amine]	49.3		> 20000
O=CO.c1ccc(-n2nc(NCc3nc4ccccc4[nH]3)c3ncc(C4CC4)nc32)cc1 [Example 13, formic acid—N-[(1H-benzimidazol-2-yl)methyl]-6-cyclopropyl-1-phenyl-1H-pyrazolo[3,4-b]pyrazin-3-amine (1/1)]	43.9	>455	> 20000
O[C@H]1C[C@H](n2nc(NCc3nc4ccccc4[nH]3)c3ncc(C4CC4)nc32)C1 [Example 43, trans-3-(3-{[(1H-benzimidazol-2-yl)methyl]amino}-6-cyclopropyl-1H-pyrazolo[3,4-b]pyrazin-1-yl)cyclobutan-1-ol]	9.53		> 20000
CN1CCC(n2nc(NCc3nc4cc(Cl)c(F)cc4[nH]3)c3ncc(C4CC4)nc32)CC1 [Example 29, N-[(5-chloro-6-fluoro-1H-benzimidazol-2-yl)methyl]-6-cyclopropyl-1-(1-methylpiperidin-4-yl)-1H-pyrazolo[3,4-b]pyrazin-3-amine]	17.5	>1145	> 20000
